From ChEMBL document CHEMBL1145809, “Novel (2E,4E,6Z)-7-(2-alkoxy-3,5-dialkylbenzene)-3-methylocta-2,4,6-trienoic acid retinoid X receptor modulators are active in models of type 2 diabetes” (J Med Chem, 2003) come the findings set out here.

For the first test, the target named is T1, Retinoic acid receptor gamma (Homo sapiens, UniProt P13631).
T1 sequence (P13631 whole entry): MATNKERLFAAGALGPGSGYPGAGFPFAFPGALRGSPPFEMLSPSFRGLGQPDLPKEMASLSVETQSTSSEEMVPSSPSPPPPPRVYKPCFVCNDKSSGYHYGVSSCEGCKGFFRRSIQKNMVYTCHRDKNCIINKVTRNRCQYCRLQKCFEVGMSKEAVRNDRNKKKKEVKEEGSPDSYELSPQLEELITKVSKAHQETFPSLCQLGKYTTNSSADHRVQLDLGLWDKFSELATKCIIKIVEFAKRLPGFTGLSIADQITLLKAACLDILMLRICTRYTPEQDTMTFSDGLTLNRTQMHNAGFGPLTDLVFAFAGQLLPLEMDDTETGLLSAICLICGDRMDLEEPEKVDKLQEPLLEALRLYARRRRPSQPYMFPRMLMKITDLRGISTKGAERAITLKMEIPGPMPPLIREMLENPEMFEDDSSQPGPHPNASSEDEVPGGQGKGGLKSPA
The experiment in a line: Binding affinity against Retinoic acid receptor gamma was determined in vitro by using [3H]ATRA as radioligand.
`C/C(=C/C=C/C(C)=C/C(=O)O)c1cc(C(C)(C)C)cc(C(C)(C)C)c1OCC(F)(F)F` gave a Ki of 4.03 µM.
Still for that read-out and setting: for `CCCOc1c(\C(C)=C/C=C/C(C)=C/C(=O)O)cc(C(C)(C)C)cc1C(C)(C)C` the value was 10 µM; for `CCC(C)(C)c1cc(\C(C)=C/C=C/C(C)=C/C(=O)O)c(OCC(F)F)c(C(C)(C)CC)c1`, 10 µM; for `CCOc1c(\C(C)=C/C=C/C(C)=C/C(=O)O)cc(C(C)(C)CC)cc1C(C)(C)CC`, 2.5 µM.
The same measure, in the same setting: for `C/C(=C/C=C/C(C)=C/C(=O)O)c1cc(C(C)C)cc(C(C)C)c1OCC(F)F` the value was 10 µM.
`C/C(=C/C=C/C(C)=C/C(=O)O)c1cc(C(C)C)cc(C(C)C)c1OCC(F)(F)F` returned a Ki of 1.86 µM.
As for `C/C(=C/C=C/C(C)=C/C(=O)O)c1cc(C(C)C)cc(C(C)C)c1OCCF`, affinity was put at a Ki of 10 µM.
Still for that read-out and setting: for `COc1c(\C(C)=C/C=C/C(C)=C/C(=O)O)cc(C(C)(C)C)cc1C(C)(C)C` the value was 10 µM.
With `CCOc1c(\C(C)=C/C=C/C(C)=C/C(=O)O)cc(C(C)C)cc1C(C)C`, the Ki was found to be 10 µM.

Test system in the next test: not listed separately
In words: RXR:RAR synergy expressed as fold induction. Further: test concentration or dose not given here.
Consider `C/C(=C/C=C/C(C)=C/C(=O)O)c1cc(C(C)(C)C)cc(C(C)(C)C)c1OCC(F)(F)F`, for which the Synergy was determined as 1 fold.
As to `CCCOc1c(\C(C)=C/C=C/C(C)=C/C(=O)O)cc(C(C)(C)C)cc1C(C)(C)C`, the Synergy worked out at 1 fold.
For `CCC(C)(C)c1cc(\C(C)=C/C=C/C(C)=C/C(=O)O)c(OCC(F)F)c(C(C)(C)CC)c1`, the Synergy worked out at 1 fold.
Take `CCOc1c(\C(C)=C/C=C/C(C)=C/C(=O)O)cc(C(C)(C)CC)cc1C(C)(C)CC`: the Synergy is 2 fold.
Consider `C/C(=C/C=C/C(C)=C/C(=O)O)c1cc(C(C)C)cc(C(C)C)c1OCC(F)F`, for which the Synergy was found to be 3 fold.
For the compound `C/C(=C/C=C/C(C)=C/C(=O)O)c1cc(C(C)C)cc(C(C)C)c1OCC(F)(F)F`, the Synergy is 2 fold.
Regarding `C/C(=C/C=C/C(C)=C/C(=O)O)c1cc(C(C)C)cc(C(C)C)c1OCCF`, the Synergy was found to be 4 fold.
Take `COc1c(\C(C)=C/C=C/C(C)=C/C(=O)O)cc(C(C)(C)C)cc1C(C)(C)C`: the Synergy was 3 fold.
As for `CCOc1c(\C(C)=C/C=C/C(C)=C/C(=O)O)cc(C(C)C)cc1C(C)C`, the Synergy stood at 5 fold.

Another test concerns the target T2, Retinoic acid receptor RXR-alpha (Homo sapiens, UniProt P19793).
T2 sequence (P19793 whole entry): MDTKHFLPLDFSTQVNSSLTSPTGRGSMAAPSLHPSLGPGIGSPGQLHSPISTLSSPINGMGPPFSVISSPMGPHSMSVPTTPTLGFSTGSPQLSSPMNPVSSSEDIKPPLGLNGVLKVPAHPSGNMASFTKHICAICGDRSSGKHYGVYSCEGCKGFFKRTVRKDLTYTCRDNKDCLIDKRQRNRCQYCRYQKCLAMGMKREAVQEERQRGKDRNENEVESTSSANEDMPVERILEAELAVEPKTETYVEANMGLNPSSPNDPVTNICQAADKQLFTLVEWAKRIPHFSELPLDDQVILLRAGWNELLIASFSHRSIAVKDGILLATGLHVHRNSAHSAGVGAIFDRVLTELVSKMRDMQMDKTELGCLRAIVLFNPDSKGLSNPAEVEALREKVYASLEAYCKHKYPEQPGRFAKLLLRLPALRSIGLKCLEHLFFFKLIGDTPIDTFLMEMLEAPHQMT
In words: Inhibitory activity against Retinoic acid receptor RXR-alpha antagonist was determined in vitro. It counts as functional.
`C/C(=C/C=C/C(C)=C/C(=O)O)c1cc(C(C)(C)C)cc(C(C)(C)C)c1OCC(F)(F)F` showed an IC50 of 8 nM.
Turning to `CCCOc1c(\C(C)=C/C=C/C(C)=C/C(=O)O)cc(C(C)(C)C)cc1C(C)(C)C`, the IC50 worked out at 43 nM.
In the case of `CCC(C)(C)c1cc(\C(C)=C/C=C/C(C)=C/C(=O)O)c(OCC(F)F)c(C(C)(C)CC)c1`, the IC50 came to 16 nM.
On to `CCOc1c(\C(C)=C/C=C/C(C)=C/C(=O)O)cc(C(C)(C)CC)cc1C(C)(C)CC`, for which the IC50 is 17 nM.
Turning to `C/C(=C/C=C/C(C)=C/C(=O)O)c1cc(C(C)C)cc(C(C)C)c1OCC(F)F`, half-maximal inhibition (IC50) required 1 nM.
Turning to `C/C(=C/C=C/C(C)=C/C(=O)O)c1cc(C(C)C)cc(C(C)C)c1OCC(F)(F)F`, the IC50 is 6 nM.
On the same count and under the same terms, for `C/C(=C/C=C/C(C)=C/C(=O)O)c1cc(C(C)C)cc(C(C)C)c1OCCF` the value was 4 nM.

The target in the next test is RXR alpha/PPAR gamma (Homo sapiens, UniProt P19793).
Chain of RXR alpha/PPAR gamma (P37231 whole entry, one chain of several): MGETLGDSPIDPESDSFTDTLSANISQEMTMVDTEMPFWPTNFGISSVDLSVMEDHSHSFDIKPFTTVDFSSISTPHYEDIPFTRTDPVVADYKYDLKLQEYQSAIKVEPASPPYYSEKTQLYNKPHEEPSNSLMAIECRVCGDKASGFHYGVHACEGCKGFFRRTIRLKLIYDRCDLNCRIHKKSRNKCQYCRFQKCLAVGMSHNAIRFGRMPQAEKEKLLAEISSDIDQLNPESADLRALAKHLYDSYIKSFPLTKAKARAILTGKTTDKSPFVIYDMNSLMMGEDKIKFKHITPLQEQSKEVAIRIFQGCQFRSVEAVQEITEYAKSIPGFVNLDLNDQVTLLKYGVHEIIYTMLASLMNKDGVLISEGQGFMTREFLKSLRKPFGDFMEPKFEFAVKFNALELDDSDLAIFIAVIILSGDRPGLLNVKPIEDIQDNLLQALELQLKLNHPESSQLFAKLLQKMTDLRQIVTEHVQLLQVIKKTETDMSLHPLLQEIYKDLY
Description: Transcriptional activity against RXR:PPAR-gamma synergy was determined in vitro
As to `C/C(=C/C=C/C(C)=C/C(=O)O)c1cc(C(C)(C)C)cc(C(C)(C)C)c1OCC(F)(F)F`, the midpoint of the response, the EC50, lay at 2 nM.
Still for that read-out and setting: for `CCCOc1c(\C(C)=C/C=C/C(C)=C/C(=O)O)cc(C(C)(C)C)cc1C(C)(C)C` the value was 154 nM.
Consider `CCC(C)(C)c1cc(\C(C)=C/C=C/C(C)=C/C(=O)O)c(OCC(F)F)c(C(C)(C)CC)c1`, for which the EC50 amounted to 11 nM.
Compound `CCOc1c(\C(C)=C/C=C/C(C)=C/C(=O)O)cc(C(C)(C)CC)cc1C(C)(C)CC` had an EC50 of 9 nM.
`C/C(=C/C=C/C(C)=C/C(=O)O)c1cc(C(C)C)cc(C(C)C)c1OCC(F)F` registered an EC50 of 10 nM.
Consider `C/C(=C/C=C/C(C)=C/C(=O)O)c1cc(C(C)C)cc(C(C)C)c1OCC(F)(F)F`, for which a half-maximal response (EC50) required 3 nM.
Consider `C/C(=C/C=C/C(C)=C/C(=O)O)c1cc(C(C)C)cc(C(C)C)c1OCCF`, for which the EC50 was 4 nM.
Turning to `COc1c(\C(C)=C/C=C/C(C)=C/C(=O)O)cc(C(C)(C)C)cc1C(C)(C)C`, the EC50 was 7 nM.
In turn, `CCOc1c(\C(C)=C/C=C/C(C)=C/C(=O)O)cc(C(C)C)cc1C(C)C` gave an EC50 of 1 nM.

The target in a further test is T2, Retinoic acid receptor RXR-alpha.
Description: Binding affinity against Retinoic acid receptor RXR-alpha was determined in vitro by using [3H]9-cis-RA as radioligand
For the compound `CCCOc1c(\C(C)=C/C=C/C(C)=C/C(=O)O)cc(C(C)(C)C)cc1C(C)(C)C`, the Ki is 14 nM.
In turn, `CCOc1c(\C(C)=C/C=C/C(C)=C/C(=O)O)cc(C(C)(C)CC)cc1C(C)(C)CC` had a Ki of 2 nM.
On to `C/C(=C/C=C/C(C)=C/C(=O)O)c1cc(C(C)C)cc(C(C)C)c1OCC(F)F`, for which the Ki came to 2 nM.
`C/C(=C/C=C/C(C)=C/C(=O)O)c1cc(C(C)C)cc(C(C)C)c1OCC(F)(F)F` showed a Ki of 3 nM.
As for `C/C(=C/C=C/C(C)=C/C(=O)O)c1cc(C(C)C)cc(C(C)C)c1OCCF`, the Ki was 1 nM.
Compound `COc1c(\C(C)=C/C=C/C(C)=C/C(=O)O)cc(C(C)(C)C)cc1C(C)(C)C` yielded a Ki of 1 nM.
For the compound `CCOc1c(\C(C)=C/C=C/C(C)=C/C(=O)O)cc(C(C)C)cc1C(C)C`, the Ki is 2 nM.

For another test the target is unchanged. This is another data set of the same source.
Description: Inhibition of Retinoic acid receptor RXR-alpha agonist activity in vitro
Take `C/C(=C/C=C/C(C)=C/C(=O)O)c1cc(C(C)C)cc(C(C)C)c1OCCF`: the EC50 is 7 nM.
Compound `COc1c(\C(C)=C/C=C/C(C)=C/C(=O)O)cc(C(C)(C)C)cc1C(C)(C)C` displayed an EC50 of 36 nM.
The compound `CCOc1c(\C(C)=C/C=C/C(C)=C/C(=O)O)cc(C(C)C)cc1C(C)C` gave an EC50 of 2 nM.
